Test results: patent US8357694B2, “Substituted 5,6-dihydro-6-phenylbenzo[F]isoquinolin-2-amine compounds” (ArQule, Inc., priority 2008, dated 2013)
Counter-ions that a name gives are not always drawn.

Row | SMILES | melting point [°C]
1 | CN(C)CCc1ccc(Nc2ncc3c(n2)-c2ccccc2[C@H](c2ccc(F)c(F)c2)C3)cc1 (as salt: hydrochloride) [Example 87, (S)-6-(3,4-difluorophenyl)-N-(4-(2-(dimethylamino)ethyl)phenyl)-5,6-dihydrobenzo[h]quinazolin-2-amine hydrochloride] | 165 to 167
2 | CN1CCN(CCc2ccc(Nc3ncc4c(n3)-c3ccccc3[C@H](c3ccc(F)c(F)c3)C4)cc2)CC1 (as salt: hydrochloride) [Example 88, (S)-6-(3,4-difluorophenyl)-N-(4-(2-(4-methylpiperazin-1-yl)ethyl)phenyl)-5,6-dihydrobenzo[h]quinazolin-2-amine hydrochloride] | 90 to 92
3 | COCCN1CCN(CCc2ccc(Nc3ncc4c(n3)-c3ccccc3[C@@H](c3ccc(F)c(F)c3)C4)cc2)CC1 (as salt: hydrochloride) [Example 90, (R)-6-(3,4-difluorophenyl)-N-(4-(2-(4-(2-methoxyethyl)piperazin-1-yl)ethyl)phenyl)-5,6-dihydrobenzo[h]quinazolin-2-amine hydrochloride] | 190 to 192
4 | Fc1ccc([C@H]2Cc3cnc(Nc4ccc(CCN5CCCCC5)cc4)nc3-c3ccccc32)cc1F (as salt: hydrochloride) [Example 91, (R)-6-(3,4-difluorophenyl)-N-(4-(2-(piperidin-1-yl)ethyl)phenyl)-5,6-dihydrobenzo[h]quinazolin-2-amine hydrochloride] | 165 to 167
5 | Fc1ccc([C@@H]2Cc3cnc(Nc4ccc(CCN5CCOCC5)cc4)nc3-c3ccccc32)cc1F (as salt: hydrochloride) [Example 92, (S)-6-(3,4-difluorophenyl)-N-(4-(2-morpholinoethyl)phenyl)-5,6-dihydrobenzo[h]quinazolin-2-amine hydrochloride] | 97 to 99
6 | CN(CCc1ccccc1)CCc1ccc(Nc2ncc3c(n2)-c2ccccc2[C@H](c2ccccc2F)C3)cc1 (as salt: hydrochloride) [Example 93, (R)-6-(2-fluorophenyl)-N-(4-(2-(methyl(phenethyl)amino)ethyl)phenyl)-5,6-dihydrobenzo[h]quinazolin-2-amine hydrochloride salt] | 135 to 145
7 | COCCNCCc1ccc(Nc2ncc3c(n2)-c2ccccc2[C@H](c2ccccc2F)C3)cc1 (as salt: hydrochloride) [Example 94, (R)-6-(2-fluorophenyl)-N-(4-(2-(2-methoxyethylamino)ethyl)phenyl)-5,6-dihydrobenzo[h]quinazolin-2-amine hydrochloride salt] | 198 to 201
8 | CN(CCc1ccccc1)CCc1ccc(Nc2ncc3c(n2)-c2ccccc2[C@H](c2ccc(Cl)c(Cl)c2)C3)cc1 (as salt: hydrochloride) [Example 104, (S)-6-(3,4-dichlorophenyl)-N-(4-(2-(methyl(phenethyl)amino)ethyl)phenyl)-5,6-dihydrobenzo[h]quinazolin-2-amine hydrochloride salt] | 170 to 175
9 | CN(CCc1ccc(Nc2ncc3c(n2)-c2ccccc2[C@H](c2ccc(Cl)c(Cl)c2)C3)cc1)C1CCCCC1 (as salt: hydrochloride) [Example 106, (S)—N-(4-(2-(cyclohexyl(methyl)amino)ethyl)phenyl)-6-(3,4-dichlorophenyl)-5,6-dihydrobenzo[h]quinazolin-2-amine hydrochloride salt] | 175 to 185
10 | COCCN1CCN(CCc2ccc(Nc3ncc4c(n3)-c3ccccc3[C@H](c3ccc(Cl)cc3)C4)cc2)CC1 (as salt: hydrochloride) [Example 113, (S)-6-(4-chlorophenyl)-N-(4-(2-(4-(2-methoxyethyl)piperazin-1-yl)ethyl)phenyl)-5,6-dihydrobenzo[α]quinazolin-2-amine hydrochloride] | 261 to 263

Next, values leading:

Row | melting point [°C] | SMILES
11 | 130 to 132 | CCCCN(C)CCc1ccc(Nc2ncc3c(n2)-c2ccccc2[C@H](c2ccc(F)c(F)c2)C3)cc1 (as salt: hydrochloride) [Example 89, (S)—N-(4-(2-(butyl(methyl)amino)ethyl)phenyl)-6-(3,4-difluorophenyl)-5,6-dihydrobenzo[h]quinazolin-2-amine hydrochloride]
12 | 145 to 150 | CCCCN(C)CCc1ccc(Nc2ncc3c(n2)-c2ccccc2[C@H](c2ccc(F)c(F)c2)C3)cc1 (as salt: hydrochloride) [Example 96, (S)—N-(4-(2-(butyl(methyl)amino)ethyl)phenyl)-6-(3,4-difluorophenyl)-5,6-dihydrobenzo[h]quinazolin-2-amine hydrochloride salt]
13 | 265 to 270 | COCCN1CCN(CCc2ccc(Nc3ncc4c(n3)-c3ccccc3[C@H](c3ccc(Br)cc3)C4)cc2)CC1 (as salt: hydrochloride) [Example 97, (S)-6-(4-bromophenyl)-N-(4-(2-(4-(2-methoxyethyl)piperazin-1-yl)ethyl)phenyl)-5,6-dihydrobenzo[h]quinazolin-2-amine hydrochloride salt]
14 | 170 to 175 | CCCCN(C)CCc1ccc(Nc2ncc3c(n2)-c2ccccc2[C@H](c2ccc(Br)cc2)C3)cc1 (as salt: hydrochloride) [Example 98, (S)-6-(4-bromophenyl)-N-(4-(2-(butyl(methyl)amino)ethyl)phenyl)-5,6-dihydrobenzo[h]quinazolin-2-amine hydrochloride salt]
15 | 205 to 210 | Brc1ccc([C@@H]2Cc3cnc(Nc4ccc(CCN5CCCCC5)cc4)nc3-c3ccccc32)cc1 (as salt: hydrochloride) [Example 103, (S)-6-(4-bromophenyl)-N-(4-(2-(piperidin-1-yl)ethyl)phenyl)-5,6-dihydrobenzo[h]quinazolin-2-amine hydrochloride salt]
16 | 135 to 145 | CCCCN(C)CCc1ccc(Nc2ncc3c(n2)-c2ccccc2[C@H](c2ccc(Cl)c(Cl)c2)C3)cc1 (as salt: hydrochloride) [Example 105, (S)—N-(4-(2-(butyl(methyl)amino)ethyl)phenyl)-6-(3,4-dichlorophenyl)-5,6-dihydrobenzo[h]quinazolin-2-amine hydrochloride salt]
17 | 140 to 145 | CCCCN(C)CCc1ccc(Nc2ncc3c(n2)-c2ccccc2[C@@H](c2ccc(Br)cc2)C3)cc1 (as salt: hydrochloride) [Example 107, (R)-6-(4-bromophenyl)-N-(4-(2-(butyl(methyl)amino)ethyl)phenyl)-5,6-dihydrobenzo[h]quinazolin-2-amine hydrochloride salt]
18 | 170 to 175 | Brc1ccc([C@H]2Cc3cnc(Nc4ccc(CCN5CCCCC5)cc4)nc3-c3ccccc32)cc1 (as salt: hydrochloride) [Example 108, (R)-6-(4-bromophenyl)-N-(4-(2-(piperidin-1-yl)ethyl)phenyl)-5,6-dihydrobenzo[h]quinazolin-2-amine hydrochloride salt]
19 | 78 to 81 | CCCCN(C)CCc1ccc(Nc2ncc3c(n2)-c2ccccc2[C@H](c2ccccc2F)C3)cc1 (as salt: hydrochloride) [Example 110, (R)—N-(4-(2-(butyl(methyl)amino)ethyl)phenyl)-6-(2-fluorophenyl)-5,6-dihydrobenzo[h]quinazolin-2-amine hydrochloride]
